Laboratory results as given in patent US20220117912A1, “L-PIPECOLIC ACID COCRYSTAL OF CANNABIDIOL” (EBERS TECH INC., priority 2019, published 2022).

Assays:
[1] = Exposure to relative humidity (RH) stress, XRPD afterwards; type: physicochemical; conditions: 95% RH for 8 days
Source text: X-Ray Powder Diffraction (XRPD): The Rigaku Smart-Lab X-ray diffraction system was configured for reflection Bragg-Brentano geometry using a line source X-ray beam. The x-ray source is a Cu Long Fine Focus tube that was operated at 40 kV and 44 ma. That source provides an incident beam profile at the sample that changes from a narrow line at high angles to a broad rectangle at low angles. Beam conditioning slits are used on the line X-ray source to ensure that the maximum beam size is less than 10 mm both along the line and normal to the line. The Bragg-Brentano geometry is a para-focusing geometry controlled by passive divergence and receiving slits with the sample itself acting as the focusing component for the optics. The inherent resolution of Bragg-Brentano geometry is governed in part by the diffractometer radius and the width of the receiving slit used. Typically, the Rigaku Smart-Lab is operated to give peak widths of 0.1° 2θ or less. The axial divergence of the X-ray beam is controlled by 5.0-degree Soller slits in both the incident and diffracted beam paths. […] Each sample was analyzed from 2 to 40° 2θ using a continuous scan of 6° 2θ per minute with an effective step size of 0.02° 2θ. In the case of high resolution XRPD, samples were analyzed with a scan rate of 1° 2θ per minute with a sample spin rate of 50 rpm. […]

[2] = Visual water solubility test of the cocrystal (0.6 mg in 3 mL water, shaken and sonicated); type: physicochemical
Procedure: 0.6 mg of the cocrystal was placed in a glass vial and 3 mL of water was added. The slurry was immediately shaken and sonicated.

Compound: C=C(C)[C@@H]1CCC(C)=C[C@H]1c1c(O)cc(CCCCC)cc1O.O=C(O)[C@@H]1CCCCN1 [1:1 cannabidiol:L-pipecolic acid cocrystal]
- Solid-form stability under humidity stress (XRPD pattern after stress) [1]: cocrystal disassociated during the experiment
- Visual dissolution in water ([2]; 0.6 mg of cocrystal in 3 mL of water, shaken and sonicated): none of the solid dissolved
- Water solubility ([2]; water): less than 0.2 mg/mL
